Source: patent US10265307B2, “Thiazolecarboxamides and pyridinecarboxamide compounds useful as Pim kinase inhibitors” (Incyte Corporation, priority 2013, dated 2019)
pIC50: −log10 of the molar value.

Tests used:
Assay type in all cases: biochemical
Pim-3 = Pim-3 (Homo sapiens (Human), UniProt Q86V86); assay: Pim-3 kinase assay; conditions: 1 mM ATP; read-out: Pim3 IC50
How it was run: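 AlphaScreen-type assay: […] Pim-3 phosphorylates 0.05 μM biotin-BAD peptide with 1 mM ATP, 1 h at 25 °C, pH 7.5 Tris buffer with MgCl2 and DTT. EDTA stop with phospho-BAD (Ser112) antibody and donor/acceptor beads, 1 h dark incubation before reading.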

Pim-2 = Pim-2 (Homo sapiens (Human), UniProt Q9P1W9); assay: Pim-2 kinase assay; conditions: 1 mM ATP; read-out: Pim2 IC50
Chain of Pim-2 (Q9P1W9 whole entry): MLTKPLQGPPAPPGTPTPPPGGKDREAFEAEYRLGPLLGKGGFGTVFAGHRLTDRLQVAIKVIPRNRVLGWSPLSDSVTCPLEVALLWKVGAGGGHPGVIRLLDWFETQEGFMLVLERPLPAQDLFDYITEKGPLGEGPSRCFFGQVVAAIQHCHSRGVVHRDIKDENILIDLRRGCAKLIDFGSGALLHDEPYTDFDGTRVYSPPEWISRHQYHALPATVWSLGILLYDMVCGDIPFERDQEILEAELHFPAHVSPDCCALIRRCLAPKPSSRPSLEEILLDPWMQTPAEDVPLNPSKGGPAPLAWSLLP

Pim-1 = Pim-1 (Homo sapiens (Human), UniProt P11309); assay: Pim-1 kinase assay; conditions: 1 mM ATP; read-out: Pim1 IC50
Chain of Pim-1 (P11309 whole entry): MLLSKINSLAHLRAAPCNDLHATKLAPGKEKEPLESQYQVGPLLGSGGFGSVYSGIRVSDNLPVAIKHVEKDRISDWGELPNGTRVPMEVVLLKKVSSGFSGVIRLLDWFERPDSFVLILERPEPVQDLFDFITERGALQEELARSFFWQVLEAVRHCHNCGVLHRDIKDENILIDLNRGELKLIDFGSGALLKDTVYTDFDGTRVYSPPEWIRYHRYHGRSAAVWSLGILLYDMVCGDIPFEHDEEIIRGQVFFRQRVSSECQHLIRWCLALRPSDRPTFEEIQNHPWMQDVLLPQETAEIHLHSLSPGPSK
Protocol: Supplementation of the STOP buffer with beads and stopping the reactions were done under reduced light. Prior to the stopping reactions STOP buffer with beads was pre-incubated for 1 h in the dark at room temperature. After stopping the reactions, plates were incubated for 1 h in the dark at room temperature before reading on a PHERAstar FS plate reader (BMG Labtech) under reduced light.

Structure (SMILES) | pIC50 (Pim-3) | pIC50 (Pim-2) | pIC50 (Pim-1)
C[C@H]1CN(c2c(NC(=O)c3ccc(F)c(-c4c(F)cccc4F)n3)cnc3c2CCC3)C[C@@H](N)[C@@H]1O [Example 52, N-{4-[(3R,4R,5S)-3-Amino-4-hydroxy-5-methylpiperidin-1-yl]-6,7-dihydro-5H-cyclopenta[b]pyridin-3-yl}-6-(2,6-difluorophenyl)-5-fluoropyridine-2-carboxamide] | ≥ 7.00 | ≥ 7.00 | ≥ 7.00
CC1(N)CCCN(c2c(NC(=O)c3nc(-c4c(F)cccc4F)sc3N)cnc3c2CCC3)C1 (stereo not drawn) [Example 57, 5-Amino-N-[4-(3-amino-3-methylpiperidin-1-yl)-6,7-dihydro-5H-cyclopenta[b]pyridin-3-yl]-2-(2,6-difluorophenyl)-1,3-thiazole-4-carboxamide] | ≥ 7.00 | 6.00 to 7.00 | ≥ 7.00
C[C@H]1CN(c2c(NC(=O)c3ccc(F)c(-c4c(F)cc(C(C)(C)O)cc4F)n3)cnc3c2CCO3)C[C@@H](N)[C@@H]1O [Example 65, N-{4-[(3R,4R,5S)-3-Amino-4-hydroxy-5-methylpiperidin-1-yl]-2,3-dihydrofuro[2,3-b]pyridin-5-yl}-6-[2,6-difluoro-4-(1-hydroxy-1-methylethyl)phenyl]-5-fluoropyridine-2-carboxamide] | ≥ 7.00 | ≥ 7.00 | ≥ 7.00
C[C@H]1CN(c2c(NC(=O)c3ccc(F)c(-c4c(F)cc(OC5CCCOC5)cc4F)n3)cnc3c2CCO3)C[C@@H](N)[C@@H]1O (stereo partly drawn) [Example 69, N-{4-[(3R,4R,5S)-3-amino-4-hydroxy-5-methylpiperidin-1-yl]-2,3-dihydrofuro[2,3-b]pyridin-5-yl}-6-[2,6-difluoro-4-(tetrahydro-2H-pyran-3-yloxy)phenyl]-5-fluoropyridine-2-carboxamide] | ≥ 7.00 | ≥ 7.00 | ≥ 7.00
C[C@H]1CN(c2c(NC(=O)c3nc(-c4c(F)cccc4F)c(F)cc3N)cnc3c2CCO3)C[C@@H](N)[C@@H]1O [Example 71, 3-Amino-N-{4-[(3R,4R,5S)-3-amino-4-hydroxy-5-methylpiperidin-1-yl]-2,3-dihydrofuro[2,3-b]pyridin-5-yl}-6-(2,6-difluorophenyl)-5-fluoropyridine-2-carboxamide] | ≥ 7.00 | ≥ 7.00 | ≥ 7.00
COc1ccc(F)c(-c2nc(C(=O)Nc3cnc4c(c3N3C[C@H](C)C[C@H](N)C3)CCO4)ccc2F)c1F [Example 73, N-{4-[(3S,5R)-3-Amino-5-methylpiperidin-1-yl]-2,3-dihydrofuro[2,3-b]pyridin-5-yl}-6-(2,6-difluoro-3-methoxyphenyl)-5-fluoropyridine-2-carboxamide] | ≥ 7.00 | ≥ 7.00 | ≥ 7.00
COc1ccc(F)c(-c2nc(C(=O)Nc3cnc4c(c3N3C[C@@H](N)[C@H](O)[C@@H](C)C3)CCO4)ccc2F)c1F [Example 74, N-{4-[(3R,4R,5S)-3-Amino-4-hydroxy-5-methylpiperidin-1-yl]-2,3-dihydrofuro[2,3-b]pyridin-5-yl}-6-(2,6-difluoro-3-methoxyphenyl)-5-fluoropyridine-2-carboxamide] | ≥ 7.00 | ≥ 7.00 | ≥ 7.00
C[C@H]1CN(c2c(NC(=O)c3nc(-c4c(F)cccc4F)sc3N)cnc3c2CCO3)C[C@@H](N)[C@@]1(C)O [Example 75, 5-Amino-N-{4-[(3R,4S,5S)-3-amino-4-hydroxy-4,5-dimethylpiperidin-1-yl]-2,3-dihydrofuro[2,3-b]pyridin-5-yl}-2-(2,6-difluorophenyl)-1,3-thiazole-4-carboxamide] | ≥ 7.00 | ≥ 7.00 | ≥ 7.00
C[C@H]1CN(c2c(NC(=O)c3nc(-c4c(F)cccc4F)sc3N)cnc3c2CCO3)C[C@@H](N)[C@]1(C)O [Example 76, 5-Amino-N-{4-[(3R,4R,5S)-3-amino-4-hydroxy-4,5-dimethylpiperidin-1-yl]-2,3-dihydrofuro[2,3-b]pyridin-5-yl}-2-(2,6-difluorophenyl)-1,3-thiazole-4-carboxamide] | ≥ 7.00 | ≥ 7.00 | ≥ 7.00
